Measurements reported in ChEMBL document CHEMBL2163236, “7-Oxo-[1,4]oxazino[2,3,4-ij]quinoline-6-carboxamides as selective CB(2) cannabinoid receptor ligands: structural investigations around a novel class of full agonists” (J Med Chem, 2012).

Experiments:
[1] = biological target: T1, Cannabinoid receptor 2 (Homo sapiens, UniProt P34972); experiment: Agonist activity at human recombinant CB2 receptor expressed in CHO cell membranes assessed as inhibition of forskolin-induced cAMP accumulation; assay type: functional, cell-based
[2] = organism: Homo sapiens; experiment: Selectivity ratio of Ki for human recombinant CB1 receptor to KI for human recombinant CB2 receptor
[3] = biological target: Cannabinoid receptor 1 (Homo sapiens, UniProt P21554); experiment: Displacement of [3H]CP-55940 from human recombinant CB1 receptor expressed in CHO cell membranes incubated for 90 mins by scintillation counting
[4] = biological target: T1, Cannabinoid receptor 2; experiment: Displacement of [3H]CP-55940 from human recombinant CB2 receptor expressed in CHO cell membranes incubated for 60 mins by scintillation counting
[5] = biological target: T2, Cannabinoid receptor 2 (Rattus norvegicus, UniProt Q9QZN9); experiment: Displacement of [3H]CP-55940 from CB2 receptor in Sprague-Dawley rat spleen by scintillation counting
T2 sequence (Q9QZN9 whole entry): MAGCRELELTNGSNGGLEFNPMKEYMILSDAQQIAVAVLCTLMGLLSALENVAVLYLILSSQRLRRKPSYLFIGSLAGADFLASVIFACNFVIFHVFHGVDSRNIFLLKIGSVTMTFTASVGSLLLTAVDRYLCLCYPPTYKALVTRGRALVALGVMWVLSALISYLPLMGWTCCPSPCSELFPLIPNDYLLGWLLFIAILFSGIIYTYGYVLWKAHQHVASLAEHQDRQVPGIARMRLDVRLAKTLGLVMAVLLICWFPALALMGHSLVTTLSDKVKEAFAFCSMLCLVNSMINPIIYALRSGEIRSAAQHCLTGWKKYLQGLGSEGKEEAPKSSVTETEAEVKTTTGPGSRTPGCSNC

[6] = biological target: Cannabinoid receptor 1 (Rattus norvegicus, UniProt P20272); experiment: Displacement of [3H]CP-55940 from CB1 receptor in Sprague-Dawley rat brain by scintillation counting
Chain of Cannabinoid receptor 1 (Rattus norvegicus, UniProt P20272) (P20272 whole entry): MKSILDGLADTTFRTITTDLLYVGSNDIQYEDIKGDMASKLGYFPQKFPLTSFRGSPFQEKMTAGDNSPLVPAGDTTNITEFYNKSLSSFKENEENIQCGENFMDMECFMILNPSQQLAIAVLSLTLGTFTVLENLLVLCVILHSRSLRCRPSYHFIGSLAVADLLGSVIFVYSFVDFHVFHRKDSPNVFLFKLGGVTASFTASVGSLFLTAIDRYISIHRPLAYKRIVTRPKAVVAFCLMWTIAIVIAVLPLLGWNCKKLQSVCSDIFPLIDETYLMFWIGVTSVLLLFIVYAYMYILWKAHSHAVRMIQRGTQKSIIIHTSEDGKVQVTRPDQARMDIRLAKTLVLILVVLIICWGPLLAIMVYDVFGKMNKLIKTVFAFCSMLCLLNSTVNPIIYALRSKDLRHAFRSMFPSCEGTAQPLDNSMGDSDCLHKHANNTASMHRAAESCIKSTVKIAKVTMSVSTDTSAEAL

Chain of Cannabinoid receptor 1 (Homo sapiens, UniProt P21554) (P21554 whole entry): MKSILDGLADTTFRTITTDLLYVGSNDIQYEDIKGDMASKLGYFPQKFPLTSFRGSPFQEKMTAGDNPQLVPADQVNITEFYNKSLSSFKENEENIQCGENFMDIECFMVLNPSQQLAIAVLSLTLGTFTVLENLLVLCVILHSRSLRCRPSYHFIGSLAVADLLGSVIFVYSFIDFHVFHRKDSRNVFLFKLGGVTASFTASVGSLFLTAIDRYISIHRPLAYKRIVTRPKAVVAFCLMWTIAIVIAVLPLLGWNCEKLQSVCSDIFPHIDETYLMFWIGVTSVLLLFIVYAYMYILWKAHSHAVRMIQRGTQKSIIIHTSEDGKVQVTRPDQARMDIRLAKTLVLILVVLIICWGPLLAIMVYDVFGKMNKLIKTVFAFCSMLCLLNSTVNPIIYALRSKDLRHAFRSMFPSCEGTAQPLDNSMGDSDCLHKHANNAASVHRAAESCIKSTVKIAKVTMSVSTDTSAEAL
T1 sequence (P34972 whole entry): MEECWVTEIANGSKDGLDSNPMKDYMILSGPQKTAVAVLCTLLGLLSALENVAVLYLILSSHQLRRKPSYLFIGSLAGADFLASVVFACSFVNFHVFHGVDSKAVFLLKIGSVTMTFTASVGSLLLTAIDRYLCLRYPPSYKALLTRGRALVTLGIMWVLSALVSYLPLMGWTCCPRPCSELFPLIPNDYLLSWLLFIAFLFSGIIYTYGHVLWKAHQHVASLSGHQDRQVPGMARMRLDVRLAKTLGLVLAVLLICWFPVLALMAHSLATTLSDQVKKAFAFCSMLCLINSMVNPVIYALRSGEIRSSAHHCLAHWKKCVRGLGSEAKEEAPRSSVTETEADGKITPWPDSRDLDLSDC

SMILES	IC50 [1] [nM]	Ratio Ki [2]	Ki [3] [nM]	Ki [4] [nM]	Ki [5] [nM]	Ki [6] [nM]
CCC1COc2cccc3c(=O)c(C(=O)NC45CC6CC(CC(C6)C4)C5)cn1c23 (racemic)	38	88	689	7.83	13.5	725
CCC1COc2cccc3c(=O)c(C(=O)NC4C5CC6CC(C5)CC4C6)cn1c23 (racemic)	57	30	389	13.2	16.1	425
CCC1COc2cccc3c(=O)c(C(=O)NC(C)CCC(C)C)cn1c23 (racemic)	62	> 633	> 10000	15.8	196	> 10000
O=C(NC1CCCCC1)c1cn2c3c(cccc3c1=O)OCC2c1ccccc1 (racemic)	15.2	166	420	2.52	19.3	1150
O=C(NC1CCCCCC1)c1cn2c3c(cccc3c1=O)OCC2c1ccccc1 (racemic)	5.23	383	310	0.81	14.7	372
O=C(NC12CC3CC(CC(C3)C1)C2)c1cn2c3c(cccc3c1=O)OCC2c1ccccc1 (racemic)	26	19	265	14.2	18.3	670
CC12CC3CC(C)(C1)CC(NC(=O)c1cn4c5c(cccc5c1=O)OCC4c1ccccc1)(C3)C2 (racemic)	18.3	133	460	3.45	46	545
CC1Oc2cccc3c(=O)c(C(=O)NC4CCCCC4)cn(c23)C1c1ccccc1 (racemic)	2750	5.83	3130	536	710	3520
CC1Oc2cccc3c(=O)c(C(=O)NC45CC6CC(CC(C6)C4)C5)cn(c23)C1c1ccccc1 (racemic)	1680	7.33	2440	332	443	2640
Cc1ccc(C2COc3cccc4c(=O)c(C(=O)NC5CCCCC5)cn2c34)cc1 (racemic)	2460	8.78	4110	468	547	4570
Cc1ccc(C2COc3cccc4c(=O)c(C(=O)NC56CC7CC(CC(C7)C5)C6)cn2c34)cc1 (racemic)	2210	9.41	3880	412	482	4150
Cc1cc2c3c(c1)c(=O)c(C(=O)NC1CCCCC1)cn3C(c1ccccc1)CO2 (racemic)	110	73	1350	18.4	25	1570
CC1COc2cccc3c(=O)c(C(=O)NC4CCCCC4)cn1c23 (racemic)	245	36	2150	60	65	2630
CC1COc2cccc3c(=O)c(C(=O)NC4CCCCCC4)cn1c23 (racemic)	210	> 263	> 10000	38	52	> 10000
CC1COc2cccc3c(=O)c(C(=O)NC45CC6CC(CC(C6)C4)C5)cn1c23 (racemic)	230	> 212	> 10000	47	55	> 10000
CCC1COc2cccc3c(=O)c(C(=O)NC4CCCCC4)cn1c23 (racemic)	62	37	821	22	24	972
CCC1COc2cccc3c(=O)c(C(=O)NC4CCCCCC4)cn1c23 (racemic)	42	47	433	9.24	11.4	498
O=C(NC1CCCC1)c1cn2c3c(cccc3c1=O)OCC2c1ccccc1 (racemic)	472	1.35	132	98	110	150
